# From PMC12649549, “Sequence Permutation Generated Lysine and Tryptophan-Rich Antimicrobial Peptides with Enhanced Therapeutic Index” (Antibiotics, 2025)
# Like-named read-outs stand apart in the source and are kept apart here.
# Legend:
# [1] = test system: Pseudomonas aeruginosa Migula (ATCC 27853)
# Method in brief: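 Broth microdilution per CLSI in Müller-Hinton broth and modified LYM broth (pH 7.4; variants with 50–300 mM NaCl, 0.5–2.5 mM MgCl2, or pH 6.5–4.5). Inoculum 5 × 10^5 CFU/mL; peptides tested at 0.78–50 µg/mL final. MIC read; three independent repeats.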
# S. aureus ATCC 33592 = test system: S. aureus ATCC 33592
# Protocol: The antibacterial and salt-resistant activity of the peptides was tested using Escherichia coli (ATCC 25922), Pseudomonas aeruginosa Migula (ATCC 27853), Acinetobacter sp. (BCRC number 14B0091, BCRC number 14B0097, and BCRC number 14B0100), and Staphylococcus aureus sp. strains (ATCC 25923, ATCC 33591, ATCC 33592, ATCC 33593, and ATCC 6538). All bacteria were obtained from the Food Industry Research and Development Institute (Hsinchu, Taiwan) and cultured in sterilized Müller-Hinton (MH) broth at 37 °C and 200 rpm for 8 h. The inoculum concentrations were determined by measuring the optical density at 600 nm (OD 600 = 1, approximately 10^8 CFU/mL) using an Ultrospec 2100 pro UV-Visible spectrophotometer (Biochrom Ltd., Cambridge, UK) after 8 h of culture.
# The antibacterial activities of the peptides in Müller-Hinton (MH) broth and modified LYM broth were determined using the standard broth microdilution method as per Clinical and Laboratory Standards Institute (CLSI) guidelines. The LYM broth was prepared with specific components and adjusted to different conditions, including varying concentrations of NaCl and MgCl2, and different pH levels. To prepare the LYM broth, 5.4 mM KCl, 5.6 mM Na2HPO4, 0.5 mM MgSO4, and 1.0 mM sodium citrate were added. Additionally, 0.4 mg of ZnCl2, 2.0 mg of FeCl3·6H2O, 0.1 mg of CuSO4·5H2O, 0.1 mg of MnSO4·H2O, 0.1 mg of Na2B4O7∙10H2O, 700 mg of amino acid mixtures without tryptophan (Takara Bio Inc., San Jose, CA, USA), and 20 mg of L-tryptophan were added per liter of medium. The pH was adjusted to 7.4, and a vitamin mixture (100X, Sigma) and glucose concentration of 2% were added. […] Bacterial strains were incubated in MH broth overnight, regrown, and diluted to a final concentration of 5 × 10^5 CFU/mL. Peptides were added to each well at final concentrations of 50, 25, 12.5, 6.25, 3.13, 1.56, and 0.78 µg/mL, and 99 µL of diluted microbes was loaded into each well of a polypropylene 96-well plate. […] The Morpheus HeatMap software (https://software.broadinstitute.org/morpheus/) was used to display MIC values on a color scale. All experiments were independently repeated three times.
# Gram-negative bacteria = assay: Geometric mean MIC and therapeutic index, Gram-negative bacteria; assay type: cell-based; details: Gram-negative bacteria; for GM G− (geometric mean of the MIC values): MH broth, MIC >50 µg/mL counted as 100 µg/mL; for Therapeutic Index (TI) G−: HC10/GM
# Protocol: (§1) In this study, we aimed to investigate the potential of W5K series peptides for therapeutic use. To evaluate their efficacy for antibacterial therapy, we used the Therapeutic Index (TI) as a measure of their cell selectivity. The TI was calculated as the ratio of the concentration causing 10% hemolysis of human red blood cells (HC10) to the geometric mean minimum inhibitory concentration (GM) of the peptides against both Gram-negative and Gram-positive bacteria. This parameter was used to quantitatively assess the balance between antibacterial potency and cytotoxicity among the W5K derivatives.
# (§2) The antibacterial activities of the peptides in Müller-Hinton (MH) broth and modified LYM broth were determined using the standard broth microdilution method as per Clinical and Laboratory Standards Institute (CLSI) guidelines. The LYM broth was prepared with specific components and adjusted to different conditions, including varying concentrations of NaCl and MgCl2, and different pH levels. To prepare the LYM broth, 5.4 mM KCl, 5.6 mM Na2HPO4, 0.5 mM MgSO4, and 1.0 mM sodium citrate were added. Additionally, 0.4 mg of ZnCl2, 2.0 mg of FeCl3·6H2O, 0.1 mg of CuSO4·5H2O, 0.1 mg of MnSO4·H2O, 0.1 mg of Na2B4O7∙10H2O, 700 mg of amino acid mixtures without tryptophan (Takara Bio Inc., San Jose, CA, USA), and 20 mg of L-tryptophan were added per liter of medium. The pH was adjusted to 7.4, and a vitamin mixture (100X, Sigma) and glucose concentration of 2% were added. For different conditions of LYM broth, NaCl concentrations of 300, 200, 150, and 50 mM, MgCl2 concentrations of 2.5, 1.5, and 0.5 mM, and pH levels of 6.5, 5.5, and 4.5 were adjusted. Bacterial strains were incubated in MH broth overnight, regrown, and diluted to a final concentration of 5 × 10^5 CFU/mL. Peptides were added to each well at final concentrations of 50, 25, 12.5, 6.25, 3.13, 1.56, and 0.78 µg/mL, and 99 µL of diluted microbes was loaded into each well of a polypropylene 96-well plate. […] The Morpheus HeatMap software (https://software.broadinstitute.org/morpheus/) was used to display MIC values on a color scale. All experiments were independently repeated three times.
# Gram-positive bacteria = assay: Geometric mean MIC and therapeutic index, Gram-positive bacteria; assay type: cell-based; details: Gram-positive bacteria; for GM G+ (geometric mean of the MIC values): MH broth, MIC >50 µg/mL counted as 100 µg/mL; for Therapeutic Index (TI) G+: HC10/GM
# Protocol: as §1, §2
# [2] = test system: Both Gram-positive and -negative bacteria; assay: Geometric mean MIC, therapeutic index and fold changes of MIC, whole panel of strains; assay type: cell-based; details: for GM G−/+ (geometric mean of the MIC values): Both Gram-positive and -negative bacteria, MH broth, MIC >50 µg/mL counted as 100 µg/mL; for Therapeutic Index (TI) G−/+: HC10/GM, both Gram-positive and -negative bacteria
# Protocol: as §1, §2
# [3] = LYM broth, 0 mM NaCl, 16 h, 37 °C
# [4] = LYM broth, 100 mM NaCl, 16 h, 37 °C
# [5] = LYM broth, 200 mM (NaCl), 16 h, 37 °C
# [6] = LYM broth, 300 mM (NaCl), 16 h, 37 °C
# [7] = MH broth, 5 × 10^5 CFU/mL, 16 h, 37 °C, repeated three times
# [8] = LYM broth, 50 mM NaCl, 16 h, 37 °C
Substance,"MIC [1, 3] [µg/mL]","MIC ([1]; LYM broth, 0.5 mM MgCl2) [µg/mL]","MIC ([1]; LYM broth, 1.5 mM MgCl2) [µg/mL]","MIC ([1]; LYM broth, 2.5 mM MgCl2) [µg/mL]","MIC [1, 4] [µg/mL]","MIC [1, 5] [µg/mL]","MIC [1, 6] [µg/mL]","MIC ([1]; LYM broth, pH 4.5) [µg/mL]","MIC ([1]; LYM broth, pH 5.5) [µg/mL]","MIC ([1]; LYM broth, pH 6.5) [µg/mL]","MIC [1, 7] [µg/mL]",MIC (S. aureus ATCC 33592; [3]) [µg/mL],"MIC (S. aureus ATCC 33592; LYM broth, 0.5 mM MgCl2) [µg/mL]","MIC (S. aureus ATCC 33592; LYM broth, 1.5 mM MgCl2) [µg/mL]","MIC (S. aureus ATCC 33592; LYM broth, 2.5 mM MgCl2) [µg/mL]",MIC (S. aureus ATCC 33592; [8]) [µg/mL],MIC (S. aureus ATCC 33592; [4]) [µg/mL],MIC (S. aureus ATCC 33592; [5]) [µg/mL],MIC (S. aureus ATCC 33592; [6]) [µg/mL],"MIC (S. aureus ATCC 33592; LYM broth, pH 4.5) [µg/mL]",other results
Ac-LKWLAKKKKWRKW-NH2 [Peptide W5K06],6.25,6.25,6.25,25,25,>50,>50,25,6.25,3.13,50,12.5,12.5,25,25,25,50,>50,>50,12.5,"MIC (S. aureus ATCC 33592; LYM broth, pH 5.5): 12.5 µg/mL; MIC (S. aureus ATCC 33592; LYM broth, pH 6.5): 6.25 µg/mL; MIC (S. aureus ATCC 33592; [7]): >50 µg/mL; GM G− (geometric mean of the MIC values) (Gram-negative bacteria): 43.5 µg/mL; Therapeutic Index (TI) G− (Gram-negative bacteria): 2.5; GM G+ (geometric mean of the MIC values) (Gram-positive bacteria): 75.8 µg/mL; Therapeutic Index (TI) G+ (Gram-positive bacteria): 1.4; GM G−/+ (geometric mean of the MIC values) [2]: 57.4 µg/mL; Therapeutic Index (TI) G−/+ [2]: 1.9"
Ac-WLAKKKKWRKWLK-NH2 [Peptide W5K08],3.13,3.13,6.25,12.5,25,50,>50,6.25,3.13,3.13,25,25,25,25,50,50,50,>50,>50,25,"MIC [1, 8]: 6.25 µg/mL; MIC (S. aureus ATCC 33592; LYM broth, pH 5.5): 25 µg/mL; MIC (S. aureus ATCC 33592; LYM broth, pH 6.5): 12.5 µg/mL; MIC (S. aureus ATCC 33592; [7]): >50 µg/mL; GM G− (geometric mean of the MIC values) (Gram-negative bacteria): 50.0 µg/mL; Therapeutic Index (TI) G− (Gram-negative bacteria): 2.2; GM G+ (geometric mean of the MIC values) (Gram-positive bacteria): 75.8 µg/mL; Therapeutic Index (TI) G+ (Gram-positive bacteria): 1.4; GM G−/+ (geometric mean of the MIC values) [2]: 61.6 µg/mL; Therapeutic Index (TI) G−/+ [2]: 1.8"
Ac-RKWLKWLAKKKKW-NH2 [Peptide W5K03],6.25,6.25,12.5,12.5,25,25,>50,12.5,6.25,3.13,50,25,25,25,25,25,50,>50,>50,25,"MIC [1, 8]: 12.5 µg/mL; MIC (S. aureus ATCC 33592; LYM broth, pH 5.5): 12.5 µg/mL; MIC (S. aureus ATCC 33592; LYM broth, pH 6.5): 12.5 µg/mL; MIC (S. aureus ATCC 33592; [7]): >50 µg/mL; GM G− (geometric mean of the MIC values) (Gram-negative bacteria): 16.5 µg/mL; Therapeutic Index (TI) G− (Gram-negative bacteria): 6.6; GM G+ (geometric mean of the MIC values) (Gram-positive bacteria): 66.0 µg/mL; Therapeutic Index (TI) G+ (Gram-positive bacteria): 1.6; GM G−/+ (geometric mean of the MIC values) [2]: 33.0 µg/mL; Therapeutic Index (TI) G−/+ [2]: 3.3"
